The source of these data is patent US5508180A, “Biocatalytic oxidation using soybean peroxidase” (Enzymol International, Inc., priority 1994, dated 1996).

The target of this experiment is T1, soybean peroxidase (Glycine max, UniProt O22443).
T1 construct: secreted heme glycoprotein, reported 37 kDa
The experiment can be described thus: Demethylation (oxidation) of methoxybenzenes by soybean peroxidase, absorbance of quinone products. As to conditions: for dA per minute (250 nm) / dA per minute (310 nm) / dA per minute (289 nm) / dA per minute (286 nm): pH 2. The class given is biochemical. As to the method: 0.1 ml soybean peroxidase (120 purpurogallin units/ml) stock solution was added to 3 ml veratryl alcohol solution (1 g veratryl alcohol in 750 ml water) and vortexed in a test tube. 20 μl peroxide stock solution was added, mixed and the solution poured into a 1 cm path, 4 ml quartz cuvette. Using a Shimadzu UV-160 double beam recording spectophotometer, the change in absorbance of the sample compared to a reference cuvette containing 3 ml veratryl alcohol solution only was monitored every minute by scanning wavelengths from 500 to 200 nm. The peak wavelength of 308 nm was identified as veratryl aldehyde and was used for further monitoring. The kinetics of the reaction were determined from the linear portion of the increase in absorbance.
Using assay methods described in Example 15, three methoxybenzenes were tested for oxidation by soybean peroxidase (SBP). These compounds were: 1,4-Dimethoxybenzene (DMB), 1,2,3-Trimethoxybenzene (TMB) and 1,3,5-Trimethoxybenzene (TMB). Stock solutions were prepared by heating 1 g (0.5g 1,3,5-TMB) in 750 ml water to 60 deg C on a stirring hot plate, allowing the solution to cool to room temperature and adjusting the pH to 2 with HCl. Assays were performed as described in Example 1. Initially, a scan of wavelengths from 500 to 200 nm every minute was done during each substrate oxidation to find suitable wavelengths to monitor for the corresponding quinone products.
For example, a comparison of the rates of oxidation of 1,4-dimethoxybenzene at pH 2 where the pH was adjusted with HCl in one case and with HNO3 in a second case is shown in Table 11.

T1 sequence (O22443 27-332): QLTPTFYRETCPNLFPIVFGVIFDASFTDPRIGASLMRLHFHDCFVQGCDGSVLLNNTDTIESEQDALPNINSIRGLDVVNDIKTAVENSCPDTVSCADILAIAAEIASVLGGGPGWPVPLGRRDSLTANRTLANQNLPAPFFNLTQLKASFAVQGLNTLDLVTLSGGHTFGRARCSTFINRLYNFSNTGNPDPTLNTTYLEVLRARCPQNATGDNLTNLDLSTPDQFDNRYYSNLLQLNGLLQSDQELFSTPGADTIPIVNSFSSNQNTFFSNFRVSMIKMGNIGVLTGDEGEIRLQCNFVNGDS

On to `COc1ccc(OC)cc1` [1,4-DMB, 1,4-Dimethoxybenzene], for which the “dA per minute (250 nm)” value is, setting by setting: (25 °C) 1.0134; (35 °C) 1.1306; (45 °C) 1.817; (55 °C) 2.73; (65 °C) 2.99; (75 °C) 0.883. The “dA per minute (250 nm)” value runs as follows: (85 °C) 0.0619; (95 °C) 0.0777. Besides, the “dA per minute (310 nm)” value reads like this: (25 °C) 0.3566; (35 °C) 0.3942; (45 °C) 0.745; (55 °C) 1.088; (65 °C) 0.437; (75 °C) 0.129. For the same compound, the “dA per minute (310 nm)” value was determined as 0.0237 (85 °C) and 0.0296 (95 °C). In addition, the “dA 250 nm per min” value runs as follows: (pH 2 adjusted with HCl) 1.275; (pH 2 adjusted with HNO3) 0.7202. Besides, the “dA 310 nm per min” value worked out at 0.3273 (pH 2 adjusted with HCl) and 0.2934 (pH 2 adjusted with HNO3).

`COc1cccc(OC)c1OC` [1,2,3-TMB, 1,2,3-Trimethoxybenzene]: the “dA per minute (289 nm)” value is, setting by setting: (25 °C) 0.0147; (35 °C) 0.0272; (45 °C) 0.0893; (55 °C) 1.1161; (65 °C) 0.0301; (75 °C) 0.0142.

As to `COc1cc(OC)cc(OC)c1` [1,3,5-TMB, 1,3,5-Trimethoxybenzene], the “dA per minute (286 nm)” value is listed as 0.0282 (35 °C); 0.474 (45 °C); 0.097 (55 °C); 0.1724 (65 °C); 0.0262 (75 °C).
